Measured values: US6379959B1, “Metalocarboxypeptidase inhibitors and derived molecules used as antitumor agents” (Universitat Autonoma de Barcelona, priority 1996, dated 2002)
Where “and” joins values, the source holds several entries; their conditions need not be identical. Identical values can stand only once. Like-named read-outs stand apart in the source and are kept apart here. Positions of bridges follow the written chain, without caps; N, C: chain ends. No end group written: not given here.

How the values were obtained:
[1] = test system: human pancreatic adenocarcinoma cell line Capan-1; format: cell-based; settings: SFM, 72 h
Method: Other kinds of tests were also carried out, the cells growing in serum-free medium as well; these were studies at short periods of time, 72 h, and of competitiveness with a growth factor plus wtPCI, PCIdelYVG or tail. […] The protocol employed was as follows:
1. In a culture plate of 96 wells, in 42 of which 5,000 cells per well were seed. The cells were placed in full medium (DMEM+10%FBS).
2. After 72 h, once the adhesion of the cells to the surface of the well had taken place, as well as their division, the medium was removed from the wells and to eliminate the remainder of the serum, 200 μL of PBS were added to each well.
3. The PBS was removed and 200 μL of DMEM-FBS were added.
4. After 24 h, the medium was removed and the following treatments were applied:
In 6 wells (control): 200 μL of serum-free medium (SFM) were added.
200 μL of SFM plus the indicated concentration of one of the growth factors and wtPCI were added in 6 wells at a final concentration of 50 μg/mL.
In 6 wells, 200 μL of SFM plus the indicated concentration of one of the growth factors and PCIdelYVG were added at a final concentration of 46 μg/mL. […]
4. Cells were kept in an incubator at 37° C., 87% of relative humidity and 10% of CO2.
5. After 72 h, the cellular growth per well was evaluated using the method detailed in the protocol of Section 4.B.2.a.

[2] = test system: human pancreatic adenocarcinoma cell line Panc-1; test: Proliferation test with tetrazolium salts, Panc-1 in medium with serum, 10 days; format: cell-based
Method: It was performed the same kind of test which had been carried out for the Capan-1 cell line but with Panc-1, another human pancreatic adenocarcinoma cell line. We are referring to a human pancreatic adenocarcinoma ATCC nr. CRL 1469, established by Lieber, M. et al. (1975) In. J. Cancer, 15: 741-747. Of ductal origin, it is not highly differentiated.
As for the Capan-1 cell line, two types of experiments were carried out with and without bovine fetal serum. The protocol followed for the test, growing in RPMI plus bovine fetal serum, was the same as that used with Capan-1 cell line but with small variations, given the difference in the duplication times between the two lines. The tests were carried out with the native PCI (wtPCI) and with the mutant PCI (PCIdelYVG). The protocol is detailed as follows:
1. In a culture plate with 96 wells, 2,000 cells were seed in 30 wells for the tests with wtPCI and in 36 for the tests with PCIdelYVG. From these 30 or 36:
In 6 wells (control), 200 μL of full medium (RPMI+10%FBS) without wtPCI or PCIdelYVG/mL were added. […]
2. The cells were kept in an incubator at 37° C., 87% of relative humidity and 10% of CO2. The old medium was sucked out with a Pasteur pipette. Medium free of wtPCI or PCIdelYVG was added to the control wells and to the others a medium was added with identical concentration of wtPCI or PCIdelYVG.
3. After 10 days, the cell growth was evaluated per well, according to the method detailed in the protocol of Section 4.B.2.a.

[3] = test system: human pancreatic adenocarcinoma cell line Capan-1; test: Growth curve of the cell line Capan-1 in presence or absence of PCI; format: cell-based; settings: for Duplication time: DMEM + 10% FBS (control 85)
Method: The growth curve of the human pancreatic adenocarcinoma cell line Capan-1 was determined by culturing the cells in medium DMEM supplemented with 10% of FBS (see Section 4 ..B.1.). Plates with wells were used, each with a surface of 10 cm^2 (Nunc, Denmark). The number of cells initially placed per well was 1×10^5, and changes of medium were made every four days, adding new PCI in the medium in the case of the cells treated with PCI.
Three growth curves were determined (FIG. 10) in absence of PCI and in presence of PCI, in concentrations of 1 μg/mL and of 10 μg/mL. Initially, 45 replica-wells were placed for each treatment. After 15 days, three of the replica-wells of each treatment were taken and their number of cells counted by means of trypsinization and recount employing hemocytometer (for a description of the technique, see Section 4.B.1.). The results of the tests are shown in Table 13, which presents the duplication times calculated from the data.

[4] = test system: human pancreatic adenocarcinoma cell line Capan-1; test: Flow cytometry analysis of cell cycle phases; format: cell-based; settings: 50 µg/mL of PCI
[5] = test system: human pancreatic adenocarcinoma cell line Panc-1; format: cell-based; settings: SFM, 72 h
embryonic cells of mice = settings: PCI in low concentrations (5 μg/mL), in vitro; cited from earlier work
EGF receptor = EGF receptor (Homo sapiens, UniProt P00533); test: Kinase activity (phosphorilation) of the EGF receptor, A431 cells; format: cell-based; set-up: endogenous in cells; host or cells: A431 (squamous cancer cell line)
Method: The material and protocol used have been those described by Donato, N. J. et al. (1989) J. Cell. Biochem., 41: 139-157.
1.c. Wash the cells twice more with tempered PBS and add new serum-free medium. Immediately after, add PCI to the concentration which is going to be studied in the cultures to be treated and incubate for 10 min at 37° C.
2.a. […] Incubate for 1 h in ice.
3.a. Prepare the reaction buffer. Each sample requires 50μL.
3.k. Dry the gel (for at least 3 h) and autoradiograph it for 10 min for the A431 cell line and 2-4 h for the Capan-1 cell line. Count the radiactivity of the filter using a beta counter.
The kinase activity in absence of PCI (basal) is taken as 100% and the values of kinase activity have been compared in various concentrations of PCI in relation to this basal activity.

[6] = Insulin 5 mg/mL + 50 mg/mL wtPCI

PCI: potato carboxypeptidase inhibitor, isoform IIa, obtained by recombinant DNA techniques in E. coli (SEQ ID NO.2) (EQHADPICNKPCKTHDDCSGAWFCQACWNSARTCGPYVG; disulfide 12-27, 18-34, 8-24)
Growth (Percentage in relation to the average of the controls) ([1]; EGF 10 ng/mL + 50 mg/mL wtPCI): 30.63% | Growth (Percentage in relation to the average of the controls) [1, 6]: 44.10% | Growth (Percentage in relation to the average of the controls) ([2]; 0.1 mg/mL wtPCI, RPMI+10%FBS): 90.85% | Growth (Percentage in relation to the average of the controls) ([2]; 1 mg/mL wtPCI): 84.55% | Growth (Percentage in relation to the average of the controls) ([2]; 10 mg/mL wtPCI): 82.22% | Growth (Percentage in relation to the average of the controls) ([2]; 50 mg/mL wtPCI): 71.14% | level of inhibition ([2]; concentration of 0.1 μg/mL): 9.15% | level of inhibition ([2]; concentration of 50 μg/mL): 28.86% | density reached by the stationary stage compared with the control cells ([3]; 10 μg/mL of PCI): a half | Duplication time ([3]; Treated with 1 mg/mL): 90 h | Duplication time ([3]; Treated with 10 mg/mL): 130 h | % G2 M ([4]; 24 h (control 6.4)): 4.7% | % S ([4]; 24 h (control 14.3)): 20.4% | % G1 ([4]; 24 h (control 79.2)): 74.9% | % G1 ([4]; 48 h): 85.3% | % G2 M ([4]; 48 h): 3.7% | % S ([4]; 48 h): 11% | % G1 ([4]; 72 h): 85.1% | % G2 M ([4]; 72 h): 4% | % S ([4]; 72 h): 10.9% | % G1 ([4]; 96 h): 88.5% | % G2 M ([4]; 96 h): 3.9% | % S ([4]; 96 h): 7.6% | Growth (Percentage in relation to the average of the controls) ([5]; EGF 10 ng/mL + 50 mg/mL wtPCI): 15.81% | Growth (Percentage in relation to the average of the controls) [5, 6]: 26.34% | tumoral transformation induced by irradiation (embryonic cells of mice): inhibits in vitro the tumoral transformation | Kinase activity (%) (EGF receptor; 1 ng/ml EGF + 1 mg/mL PCI): 126% | Kinase activity (%) (EGF receptor; 1 ng/ml EGF + 10 mg/mL PCI): 108% | Kinase activity (%) (EGF receptor; 1 ng/ml EGF + 50 mg/mL PCI): 53% | Kinase activity (%) (EGF receptor; basal, incubation with PCI 1 mg/mL, 10 min, 100% = absence of PCI): 68% | Kinase activity (%) (EGF receptor; basal, incubation with PCI 50 mg/mL, 10 min, 100% = absence of PCI): 78% and 61% and 80% and 77% | Kinase activity (%) (EGF receptor; basal, incubation with PCI 100 mg/mL, 10 min, 100% = absence of PCI): 29% | kinase activity of the receptor under EGF (EGF receptor; highest dose of PCI, 50 μg/mL, with EGF): reduced to half the basal activity
